Data from patent publication US10182569B2, “Composition comprising allantoin and method of applying allantoin to a plant” (Kaneka Corporation, priority 2016, dated 2019).
Several values for one entry are separate records, joined by “and”; a condition that tells them apart may be missing. Identical values can stand only once. Like-named read-outs stand apart in the source and are kept apart here.

Assays:
[1] = system: onion; assay: High temperature stress resistance of onion via allantoin application (Experiment 2); type: in vivo, onion (variety: Neoearth); details: for viability 3 days after the heat shock treatment: 1 mM allantoin 40 ml/pot 6 days after sowing
Method: (§1) A 5-cm polypot was mounted on a balance dish BD-2 (AS ONE Corporation), 70 ml of vermiculite (Protoleaf Inc.) was introduced thereinto, 80 ml of culture soil (TAKII & CO., LTD.) was further introduced thereinto, 3 seeds of onion (variety: Neoearth; TAKII & CO., LTD.) were sowed at 3 positions, and 20 ml of vermiculite was further introduced thereinto, so as to cover the soil. Thereafter, 50 ml of tap water was supplied to the balance dish two times. The polypot (together with the balance dish) was mounted on a bat, and the resultant was then introduced into an incubator at 22° C. and 10,000 Lux for a light period of 12 hours and a dark period of 12 hours, so as to initiate cultivation. The day on which cultivation was initiated was designated as Day 0 after sowing. Germination was observed 5 days after sowing. While leaving 3 plants in each pot (i.e., a plant in each position), other plants were removed therefrom 6 days after sowing.
Tap water or an aqueous solution of 1 mM allantoin was applied to each test group (40 ml/pot) 6 days after sowing (hereafter, referred to as the “water treatment group” or the “allantoin treatment group,” respectively). Tap water was applied to all the pots (40 ml/pot) 11 days after sowing. The pots mounted on the bats were introduced into the incubator 13 days after sowing (at the 2-true-leaf stage in the case of onions), and the plants were exposed to high temperature stress at 45° C. for 1 hour, 1.5 hours, and 2 hours. Soil in the pots was sufficiently humidified before and after high temperature stress application. After the completion of the high temperature stress treatment, the temperature in the incubator was cooled to 22° C., and cultivation was continued. Water was supplied 2 days after the heat shock treatment (40 ml/pot). Thereafter, water was supplied in an amount of 40 ml per pot at intervals of 2 days.
(§2) The “viability” indicates the proportion of the number of survived plants relative to the number of plants subjected to the heat shock treatment. The viability was calculated by regarding plants that would no longer grow (i.e., the plants with the youngest leaves suffering from physical damage, such as whitening, withering, or curling of leaves) as plants that are not survived.

[2] = system: Brassica chinensis komatsuna; assay: High temperature stress resistance of Brassica chinensis komatsuna via allantoin application (Experiment 3); type: in vivo, Brassica chinensis komatsuna (variety: Rakuten); details: 1 mM allantoin 40 ml/pot 6 and 13 days after sowing, 45° C. for 1 hour
Method: as §1, with “Brassica chinensis komatsuna” for “onion”, “Rakuten,” for “Neoearth;”, “the center of the pot,” for “3 positions,”, “bat” for “bat,”, “and” for “and the resultant was then”, “sowing.” for “sowing. Germination was observed 5 days after sowing. While leaving 3 plants in each pot (i.e., a plant in each position), other plants were removed therefrom 6 days after sowing.”
Germination was observed 3 days after sowing. While leaving one plant in each pot, other plants were removed therefrom 6 days after sowing. […]
as §2

[3] = system: DREB2A (AGI code: AT5G05410); assay: DREB2A gene expression, quantitative PCR, cultivation in allantoin-containing medium (Experiment 5); type: in vivo, Arabidopsis thaliana; details: 1 mM allantoin in ½ MS solid medium, 14 days, leaves and stems, reference gene ACT2
Method: (§3) Seeds of wild-type Arabidopsis thaliana line (Columbia-0) were sterilized in 2.5% (v/v) sodium hypochlorite, sowed in the ½ MS solid medium described in Experiment 1 (Table 1) (the medium was supplemented with 1 mM allantoin; allantoin was not added to the control group: a deep petri dish with a diameter of 90 mm and a height of 20 mm), and then allowed to grow under long-day conditions (in an incubator at 5,000 Lux, a light period of 16 hours and a dark period of 8 hours, 22° C.) for 14 days. Using a commercialized kit, RNA extraction from leaves and stems of Arabidopsis thaliana (NucleoSpin RNAII, MACHEREY-NAGEL), reverse transcription (ReverTra Ace qPCR RT Master Mix, TOYOBO), and quantitative PCR (KAPA SYBR FAST qPCR Master Mix, KAPABIOSYSTEMS) were carried out. As a reference gene, ACT2 (AGI code: AT3G18780) was used. As a result, the relative expression level of DREB2A (AGI code: AT5G05410; SEQ ID NO: 1) and that of HSF3 (AGI code: AT5G16820; SEQ ID NO: 2) were 2.2 times and […] greater than the expression level of the control group, respectively.

[4] = system: HSF3 (AGI code: AT5G16820); assay: HSF3 gene expression, quantitative PCR, cultivation in allantoin-containing medium (Experiment 5); type: in vivo, Arabidopsis thaliana; details: 1 mM allantoin in ½ MS solid medium, 14 days, leaves and stems, reference gene ACT2
Method: as §3

[5] = system: Arabidopsis thaliana; assay: High temperature stress resistance of Arabidopsis thaliana cultivated in allantoin-containing medium (Experiment 6); type: in vivo; details: 10 μM, 100 μM or 1,000 μM allantoin in ½ MS solid medium; 45° C. 105 minutes; grown 1 week
Method: The wild-type (WT) line of Arabidopsis thaliana (L.) Heynh., accession Columbia-0 described in Experiment 1 was used.
The ½ MS solid medium described in Experiment 1 (Table 1) was used (10 μM, 100 μM, or 1,000 μM allantoin was further added to the allantoin-supplemented group, allantoin was not added to the allantoin-free group, a deep sterilized petri dish No. 903 VALMARK; Ina-Optika Corporation).
(5) In the petri dish, a circular accommodation part (a plane view) is divided into 2 semicircular compartments by a partition wall extended toward a diametrical direction. The allantoin-free ½ MS solid medium was accommodated in one of the compartments of the petri dish, the allantoin-supplemented ½ MS solid medium was accommodated in another compartment, and 15 seeds were sowed in each compartment (i.e., 30 seeds in total per petri dish) (FIG. 5A).
(8) The resultant was transferred to a culture chamber and cultured therein at 22° C. under long-day conditions (light application for 16 hours under fluorescent light: 0.07 mmol photons […] s^−1) for 7 days. […]
(10) Thereafter, the petri dish was cooled in an incubator at 23° C. for 10 to 15 minutes, and the plants were then allowed to grow again for 1 week under the conditions (8). […] The viability was evaluated on the basis of such phenomenon. […]

[6] = system: creeping bentgrass; type: in vivo, creeping bentgrass (variety: 007); details: 1 mM allantoin 40 ml/pot on Days 7, 10 and 13; measured Day 13 after sowing; mean of 20 grasses per pot
Method: (§4) A polypot with 5 cm each side was placed on a balance dish BD-2 (AS ONE Corporation), and 120 ml of joint- and bed-soil for turf grass (TACHIKAWA HEIWA NOUEN CO., LTD.) was then added into the pot. Thereafter, 140 mg of seeds of creeping bentgrass (variety: 007, Power Shop FUJI) was seeded on the soil, and 3 ml of the soil was further added onto the seeds. Thereafter, 10 ml of tap water was supplied to the balance dish. The polypot (together with the balance dish) was placed on a tray, and was then placed in an artificial climate chamber having a temperature of 20° C., a light intensity of 300 μmol/m^2/s, a light period of 16 hours, a dark period of 8 hours, and a humidity of 70%, and thereafter, cultivation was initiated. The day on which cultivation was initiated was defined as Day 0 after sowing. On Day 2 after sowing, 40 ml/pot tap water was applied to all pots. On Day 5 after sowing, germination was confirmed.
On Days 7, 10 and 13 after sowing, tap water (hereinafter referred to as a “water group”) or a 1 mM allantoin aqueous solution (hereinafter referred to as an “allantoin group”) was applied, in an amount of 40 ml/pot, to individual experiment groups. […]
On Day 13 after sowing, 20 turf grasses were selected from each pot, and the grass height and fresh weight of each grass were then measured. Based on the measured values, a mean value was calculated. […]

[7] = system: creeping bentgrass; type: in vivo, creeping bentgrass (variety: 007); details: measured Day 15
Method: as §4
On Days 6, 11 and 13 after sowing, tap water (hereinafter referred to as a “water group”) or a 0.5 or 1 mM allantoin aqueous solution (hereinafter referred to as an “allantoin group”) was applied, in an amount of 40 ml/pot, to individual experiment groups. On and after Day 13 after sowing, a difference was found in the growth of turf glasses among individual groups. On Day 15, 20 turf grasses were selected from each pot, and the grass height and fresh weight of each grass were then measured. Based on the measured values, a mean value was calculated.

[8] = system: rice (Koshihikari); assay: Leaf Area Index of rice in paddy field after allantoin application to seedlings (Experiment 9); type: in vivo; details: for LAI (Leaf Area Index): 1 mM allantoin 3 L per nursery box on Day 26 after sowing, two plant bodies
Method: A 1 mM allantoin aqueous solution or water was applied in an amount of 3 L each to the seedlings of rice (Koshihikari) on Day 26 after sowing (the size of a nursery box: 280×580×28 (mm) (depth×width×height)). A total of the applied dose of allantoin per unit area, which was applied for a single application in Experiment 9, was 3.0 g/m^2 (1.05 g/m^2 relative to allantoin nitrogen) in the 1 mM allantoin group.
Twelve hours after the application, the seedlings were planted in a paddy field, and were then allowed to grow for 55 days and for 63 days. Thereafter, using a leaf area measurement apparatus LAI-2200 (MEIWAFOSIS CO., LTD.), Leaf Area Index (LAI) which indicates the leaf area under conditions in which the plant still grows in the field, was non-destructively measured. LAI was obtained from two plant bodies in each of the allantoin group and the water group (n=2).

[9] = system: wild-type Arabidopsis thaliana; details: allantoin administered to wild-type Arabidopsis thaliana; cited from earlier work
[10] = system: Arabidopsis thaliana; details: application of allantoin to Arabidopsis thaliana; cited from earlier work
[11] = system: rice; details: rice seeds immersed in 300 mg/L allantoin solution for 24 hours; cited from earlier work
[12] = 0.5 mM allantoin 40 ml/pot on Days 6, 11 and 13
[13] = 1 mM allantoin 40 ml/pot on Days 6, 11 and 13

With NC(=O)NC1NC(=O)NC1=O (racemic) [Allantoin] the “viability 3 days after the heat shock treatment” value (shortened to “viability 3 days”) ([1]; 45° C. for 1 hour) was 66.7%, the “viability 3 days” value ([1]; 45° C. for 1.5 hours) was 33.3% and the “viability 3 days” value ([1]; 45° C. for 2 hours) was 11.1%. For the same compound, the “viability 8 days after heat shock treatment” value ([1]; 1 mM allantoin, 45° C. for 1, 1.5 and 2 hours, compared with 3 days) was “same viability”, the “viability 7 days after the heat shock treatment” value [2] was 100% and the “relative expression level of DREB2A versus control group” value [3] was 2.2 times. The “relative expression level of HSF3 versus control group” value [4] was 0.7 times, the “resistance to high temperature stress (viability)” value [5] was “has resistance to high temperature stress” and the Fresh weight [6] was 2.9 mg. For the same compound, the Grass height [6] was 5.6 cm, the Fresh weight [7, 12] was 3 mg and the Grass height [7, 12] was 5.8 cm. For the same compound, the Fresh weight [7, 13] was 3.1 mg, the Grass height [7, 13] was 5.9 cm and the “LAI (Leaf Area Index)” value ([8]; 55th day in paddy field) was 1.94 m^2/m^2 and 2.04 m^2/m^2. The “LAI (Leaf Area Index)” value ([8]; 63rd day in paddy field) was 2.71 m^2/m^2 and 2.82 m^2/m^2, the “LAI smaller than the LAI of the water group” value ([8]; 55th day) was “approximately 25%” and the “LAI smaller than the LAI of the water group” value ([8]; 63rd day) was “approximately 10%”. For the same compound, the “production of abscisic acid” value [9] was “promoted”, the plant growth [10] was “promoted” and the “height of the seedlings, number of roots and fresh weight of the seedlings versus water control” value [11] was “increased”.
